Experiment [1] deals with HepG2 cells. Briefly: [14C] Acetate Incorporation HepG2 Cellular Assay. The format is cell-based. The settings on record: Hep-G2 cells, FIG. 7. As for the experimental part: Compounds of the present invention were evaluated in a [^14C] Acetate Incorporation Assay. An exemplary procedure for the assay, which measures the incorporation of isotopically labeled acetate into fatty acids, follows. HepG2 cells were maintained in T-75 flasks containing DMEM supplemented with 2 mM 1-glutamine, penicillin G (100 units/ml), streptomycin 100 μg/ml with 10% FBS and incubated in a humidified incubator with 5% CO2 at 37° C. Cells were fed every 2-3 days. On Day 1. cells were seeded in 24 well plates at a density of 1.2×10^5 cells/ml/well with the growth medium. On Day 3 the medium was replaced with fresh medium containing 10% FBS. On Day 4 the medium was replaced with 0.5 ml of fresh medium containing test compound (in DMSO; final [DMSO] is 0.5%) and the cells were incubated at 37° C. for 1 hour. To one copy of plate, 4 ul of [2-^14C]acetate (56 mCi/mmol; 1 mCi/ml; PerkinElmer) was added and the cells were incubated at 37° C., 5% CO2 for 5 hrs. To a second copy of plate, 4 ul of cold acetate were added and the cells were incubated at 37° C., 5% CO2 for 5 hrs. This plate was used for protein concentration measurement. Medium was removed and placed in a 15 ml centrifuge tube (BD, Falcon/352096). Cells were rinsed with 1 ml PBS, then aspirated, and the rinse and aspiration steps were repeated. 0.5 ml of 0.1N NaOH were added to each well and let sit at RT to dissolve cell monolayer. The remaining cell suspension was pooled with medium. For the protein determination plate, an aliquot was removed for protein determination (25 ul). […] 5 ml petroleum ether was added per tube, shaken vigorously, centrifuged at 1000 rpm for 5 min, and 500 uL of the petroleum ether layer was transferred to tubes for Microbeta reading, then 2 ml Aquasol-2 were added to each tube, the tubes were shaken and counted with a Microbeta Liquid Scintillation Counter (Perkin Elmer).
The remaining petroleum ether layer was discarded and the aqueous phase reserved for fatty acid extractions. […] 2 ml of Aquasol-2 was added to each vial, and the vials were shaken and counted on a scintillation counter.

Experiment [2] deals with C. albicans ATCC 90028. Briefly: Anti-Fungal Activity Assay (broth microtiter MIC). The format is cell-based. The following applies: 3 replicates, test compounds read at 48 h.
Experiment [3] has as its system C. krusei ATCC 6258. Briefly: Anti-Fungal Activity Assay (broth microtiter MIC). The format is cell-based. The following applies: 3 replicates, test compounds read at 48 h.
Experiment [4] deals with C. parapsilosis ATCC 22019. Briefly: Anti-Fungal Activity Assay (broth microtiter MIC). The format is cell-based. The following applies: 3 replicates, test compounds read at 48 h.
Experiment [5] has as its system fatty acid synthesis. Briefly: In Vivo Fatty Acid Synthesis Study ([C14]-acetate incorporated into rat liver tissue). The following applies: oral, FIG. 8 and FIG. 16. As for the experimental part: Compounds of the present invention were also assayed in an In Vivo Fatty Acid Synthesis Study as described by Harwood et al. “Isozyme-nonselective N-Substituted Bipiperidylcarboxamide Acetyl-CoA Carboxylase Inhibitors Reduce Tissue Malonyl-CoA Concentrations, Inhibit Fatty Acid Synthesis, and Increase Fatty Acid Oxidation in Cultured Cells and in Experimental Animals” Journal of Biological Chemistry (2008) 278, 37099-37111. An exemplary procedure for the assay, which measures the amount of radioactive [C^14]-acetate incorporated into rat liver tissue, follows.
Animals given food ad water ad libitum were treated orally at a volume of 1.0 mL/200 g body weight (rat) with either an aqueous solution containing 0.5% methylcellulose (vehicle), or an aqueous solution containing 0.5% methylcellulose plus test compound. One to four hours after compound administration, animals received an intraperitoneal injection of 0.5 mL of [C^14]-acetate (64 uCi/mL; […]). […] The pooled organic fractions were transferred to liquid scintillation vials, dried under nitrogen, dissolved in 7 mL of Aquasol liquid scintillation fluid, and assessed for radioactivity using a Beckman 6500 liquid scintillation counter. Results were recorded as disintigrations per minute (DPM) per milligram of tissue.

Read-outs that look alike come from different tables or passages of the source. Where only a bound is given, the exact number is not on record here.

For `COc1ccccc1[C@H](Cn1c(=O)n(C(C)(C)C(=O)O)c(=O)c2c(C)c(-c3ncco3)sc21)OC1CCOCC1` [I-181, 2-[1-[2-(2-methoxyphenyl)-2-(oxan-4-yloxy)ethyl]-5-methyl-6-(1,3-oxazol-2-yl)-2,4-dioxo-1H,2H,3H,4H-thieno[2,3-d]pyrimidin-3-yl]-2-methylpropanoic acid], in experiment [1], the “incorporation of isotopically labeled acetate into fatty acids” value is on record as “inhibit incorporation of isotopically labeled acetate into fatty acids”. Besides, the MIC was >64 µg/mL in experiment [2]; > 64 µg/mL in experiment [2] (Candida albicans, ATCC90028, 48 h, read-out: MIC); >64 µg/mL in experiment [3]; > 64 µg/mL in experiment [3] (Pichia kudriavzevii, ATCC6258, 48 h, read-out: MIC); >64 µg/mL in experiment [4]; > 64 µg/mL in experiment [4] (Lodderomyces parapsilosis, ATCC22019, 48 h, read-out: MIC). Further, the “ED50, fatty acid synthesis in rats” value in experiment [5] is on record as “less than 0.3 mg/Kg body weight”.

A word on the MIC: it is the lowest concentration found to suppress growth.

Source of the values: US9453026B2, “ACC inhibitors and uses thereof” (Gilead Apollo, Inc., priority 2011, dated 2016).
